Where only a bound is given, the exact number is not on record here.

Consider nine molecules from patent US12479818B2, “Treatment of fibrosis with IRE1 small molecule inhibitors” (Cornell University, priority 2019, dated 2025).

Series [1] has as its target T1, IRE1a (Homo sapiens, UniProt O75460). Description: IRE1a Endoribonuclease Nanoluciferase Assay (XBP1 luciferase reporter in 293T cells). Conditions: XBP1 nanoluciferase reporter in 293T cells, ER stressor; tested as the salt named. Format: cell-based. Also noted: endogenous in cells; host or cells: 293T.
In series [2] the target is T1, IRE1a. The series is described as follows: In vitro FRET assay (IRE1a cleavage of XBP1 RNA probe). Conditions: IRE1a 2 nM, tested as the salt named. The format is biochemical. Also noted: purchased SignalChem. The protocol: Selected compounds were serially diluted with DMSO in a non-binding black 384-well plate for a total of 15 ul in each well. 2 ul of the serially diluted compound or DMSO control were then added to new wells containing 98 ul of 1×CAB, for a total volume of 100 ul, 10 ul of which were then transferred to wells of a new plate. 5 ul of the diluted IRE1a was then added to each well. 5 ul of a […] XBP1 RNA probe was then added to each well.
Each probe contained a 5′ 6-FAM modification and a 3′ IOWA Black FQ modification.
A second FRET assay was performed to assess ATP-mediated inhibition. In this case, compounds and IRE1a were prepared and combined as discussed above, with the addition of ATP up to 1 mM final concentration. This mixture was incubated at room temperature for 60 minutes and then 5 ul of 400 nM XBP1 wildtype or mutant RNA probe was added.

In another series the test system is 293T cells. Description: Growth assay (cytotoxicity). The format is cell-based, human. Conditions: 2 day incubation. Here is the method: A growth assay was performed to evaluate the compounds disclosed herein for cytotoxicity. […] 133.3 uL cDMEM was added to wells 1, 2, 3, 5, 6, and 7 in rows A, C, E and G of the dilution plate. Compounds were serially diluted leftwards in threefold dilutions (66.7 uL into 133.3 uL cDMEM). 20 μL of each dilution was transferred in duplicate (duplicates in vertical paired wells) to the cells plated in the 96-well plate shown in Table 5, to the total concentrations shown below. 200 uL cDMEM was added to media wells (wells G5-H8). The plate was then placed in a humidified chamber for a 2 day incubation, and then photographed (media was more yellow in wells with potent cell growth).

A short description of series [3]: Bioavailability assay (mouse pharmacokinetic study). Format: in vivo. The note with it: IV 1 mg/kg, PO 30 mg/kg (Compound A PO 10 mg/kg).
For series [4], the target named is T1, IRE1a. Description: IRE1a phosphorylation inhibition assay (immunoblot, tunicamycin-treated 293T cells). The format is cell-based. Also noted: endogenous in cells; host or cells: 293T. Conditions: human 293T cells. Here is the method: Inhibition of ER stress-induced IRE1a phosphorylation and XBP1s protein accumulation in human 293T cells was assessed. Immunoblot analysis was performed in human 293T cells lysates obtained from cells after exposure to the chemical ER stress-inducing agent tunicamycin, and optional treatment with Compound C. Lysates were probed with antibodies recognizing IRE1a, phosphorylated IRE1a, XBP1, or TATA-binding protein (TBP). TBP was blotted as a protein loading control. […] 20 nM was sufficient to reduce XBP1s protein levels below the limit of detection in this assay.

For series [5], the system named is IRE1a-mediated XBP1 splicing. The series is described as follows: Assay for target engagement in pancreas and salivary gland (RT-qPCR of XBP1 splicing). Conditions: mice, 30 mg/kg oral gavage, 6 hours, compared to control and Compound B. The format is in vivo. Here is the method:
Mice (n=3 per group) were orally gavaged with 30 mg/kg vehicle control or IRE1 inhibitors dissolved in H2O. After 6 hours, mice were euthanized and pancreas and salivary gland tissues were isolated, snap frozen on dry ice, and used for subsequent RT-qPCR analysis of beta-actin, XBP1s and total XBP1. Gene expression was evaluated by quantitative PCR for XBP1s and total XBP1 transcripts using the 2^(−ΔCT) method for calculating normalized gene expression. Gene expression levels were normalized to Actb transcripts. XBP1 splicing is calculated as XBP1s expression divided by total XBP1 expression.

The test system of another series is IRE1a/XBP1 pathway. Description: Assay for inhibition of endogenous XBP1 splicing in 293T cells with tunicamycin. The format is cell-based, human. Conditions: XBP1 splicing by qPCR. The protocol: Gene expression was evaluated by quantitative PCR for XBP1s and total XBP1 transcripts using the 2^(−ΔCT) method for calculating normalized gene expression. Gene expression levels were normalized to ACTB transcripts. XBP1 splicing was calculated as actin-normalized XBP1s expression divided by actin-normalized total XBP1 expression.

Series [6] in a line: Metabolic assays of N,N-dimethyl compounds. Format: in vitro ADME. The note with it: data not shown.

T1 sequence (O75460 19-977): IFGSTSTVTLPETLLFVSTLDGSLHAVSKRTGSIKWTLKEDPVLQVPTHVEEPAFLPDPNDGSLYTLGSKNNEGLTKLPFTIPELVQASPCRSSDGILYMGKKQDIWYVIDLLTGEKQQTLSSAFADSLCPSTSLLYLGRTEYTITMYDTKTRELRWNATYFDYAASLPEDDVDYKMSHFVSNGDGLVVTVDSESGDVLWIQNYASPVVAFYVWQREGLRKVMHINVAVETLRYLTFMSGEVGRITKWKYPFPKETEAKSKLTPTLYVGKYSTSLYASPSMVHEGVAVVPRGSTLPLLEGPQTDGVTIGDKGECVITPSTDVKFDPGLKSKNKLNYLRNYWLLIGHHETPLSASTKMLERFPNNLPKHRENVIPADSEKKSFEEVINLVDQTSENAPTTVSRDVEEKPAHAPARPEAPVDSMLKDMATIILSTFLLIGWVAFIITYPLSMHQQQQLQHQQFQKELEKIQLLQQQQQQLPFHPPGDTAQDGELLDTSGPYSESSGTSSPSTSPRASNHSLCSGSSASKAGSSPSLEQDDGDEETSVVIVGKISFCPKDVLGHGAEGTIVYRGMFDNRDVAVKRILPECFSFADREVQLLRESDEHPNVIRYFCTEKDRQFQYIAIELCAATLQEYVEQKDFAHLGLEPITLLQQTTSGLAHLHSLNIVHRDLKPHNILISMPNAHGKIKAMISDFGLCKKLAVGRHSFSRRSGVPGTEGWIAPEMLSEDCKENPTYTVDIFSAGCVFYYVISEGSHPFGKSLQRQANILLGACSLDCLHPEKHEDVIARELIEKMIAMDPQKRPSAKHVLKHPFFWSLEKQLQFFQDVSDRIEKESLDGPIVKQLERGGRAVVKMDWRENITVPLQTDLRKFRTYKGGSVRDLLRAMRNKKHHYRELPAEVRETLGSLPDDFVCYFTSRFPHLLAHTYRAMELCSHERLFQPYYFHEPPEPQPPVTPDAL

Regarding `CCc1cc(-c2cnc(NS(=O)(=O)c3ccccc3Cl)cn2)cc2cnc(N[C@H]3CC[C@H](N)CC3)nc12` [Compound 25, N-(5-(2-(((1r,4r)-4-aminocyclohexyl)amino)-8-ethylquinazolin-6-yl)pyrazin-2-yl)-2-chlorobenzene-sulfonamide], the EC50 on IRE1a [1] is < 5 nM. Also, on IRE1a [2], the IC50 is < 5 nM. Besides, the “% Growth at 0.185 uM” value in the series with 293T cells (0.185 uM) is “D (D: > 75% to ≤ 100%)”. Also, the “% Growth at 0.5556 uM” value in the series on 293T cells (0.5556 uM) is “D (D: > 75% to ≤ 100%)”. Moreover, the “% Growth at 1.667 uM” value in the series on 293T cells (1.667 uM) is “D (D: > 75% to ≤ 100%)”. Moreover, the “% Growth at 5 uM” value in the series on 293T cells (5 uM) is reported as “D (D: > 75% to ≤ 100%)”.
`CCc1cc(-c2ccc(NS(=O)(=O)c3ccccc3Cl)c(F)c2)cc2cnc(N[C@H]3CC[C@H](NC(=O)[C@@H](N)C(C)C)CC3)nc12` [Compound 58, (S)-2-amino-N-((1r,4S)-4-((6-(4-((2-chlorophenyl)sulfonamido)-3-fluorophenyl)-8-ethylquinazolin-2-yl)amino)cyclohexyl)-3-methylbutanamide]: the EC50 at IRE1a [1] was < 5 nM. Besides, the half-maximal inhibitory concentration (IC50) at IRE1a [2] lay within 5 to 50 nM.
For `CCc1cc(-c2ccc(NS(=O)(=O)c3ccccc3Cl)c(F)c2)cc2cnc(N[C@@H]3CC[C@H](N)[C@H](C)C3)nc12` [Compound 70, N-(4-(2-(((1R,3R,4S)-4-amino-3-methylcyclohexyl)amino)-8-ethylquinazolin-6-yl)-2-fluorophenyl)-2-chlorobenzene-sulfonamide], at IRE1a [1], the EC50 is < 5 nM. The IC50 at IRE1a [2] is < 5 nM.
In the case of `CCc1cc(-c2ccc(NS(=O)(=O)c3ccccc3Cl)c(F)c2)cc2cnc(N[C@H]3CCCNC3)nc12` [Compound 73, (S)-2-chloro-N-(4-(8-ethyl-2-(piperidin-3-ylamino)quinazolin-6-yl)-2-fluorophenyl) benzene-sulfonamide], at IRE1a [1], the EC50 is < 5 nM. The IC50 on IRE1a [2] was < 5 nM.
Consider `N[C@H]1CC[C@@H](Nc2ncc3cc(-c4ccc(NS(=O)(=O)c5ccccc5Cl)c(F)c4)ccc3n2)C1` [Compound 80], for which the EC50 at IRE1a [1] lay in the range of 100 to 10000 nM. Moreover, the IC50 at IRE1a [2] is < 5 nM.
The matching figures for `CCc1cc(-c2ccc(NS(=O)(=O)c3ccccc3Cl)nc2C)cc2cnc(N[C@H]3CC[C@H](N(C)C)CC3)nc12` [Compound 91, 2-chloro-N-(5-(2-(((1r,4r)-4-(dimethylamino)cyclohexyl)amino)-8-ethylquinazolin-6-yl)-6-methylpyridin-2-yl)benzenesulfonamide]: < 5 nM and < 5 nM.
On to `CCc1cc(-c2ccc(NS(=O)(=O)c3ccccc3Cl)nc2C)cc2cnc(N[C@H]3CC[C@H](N)CC3)nc12` [Compound A, N-(5-(2-(((1r,4r)-4-aminocyclohexyl)amino)-8-ethylquinazolin-6-yl)-6-methylpyridin-2-yl)-2-chlorobenzenesulfonamide], for which, in series [3], the oral bioavailability came to 4%.
In the case of `CCc1cc(-c2ccc(NS(=O)(=O)c3ccccc3Cl)nc2C)cc2cnc(NC3CCC(N(C)C)CC3)nc12` (stereo not shown) [Compound C], the “concentration sufficient to reduce XBP1s protein levels below the limit of detection” value at IRE1a [4] is 20 nM. Besides, on IRE1a [4] (pre-incubation with compound), the “ER stress-induced IRE1a phosphorylation” value is on record as “strongly repressed” and the “accumulation of XBP1s protein” value is “completely abrogated”. Also, the “suppression of IRE1a-mediated XBP1 splicing in pancreas and salivary gland” value in series [5] is on record as “potently suppressed”. Further, the “shift in potency between Compound A and Compound C” value in the series with IRE1a/XBP1 pathway was “approximately 3.6 ×”. Further, the metabolic fate result in series [6] was “removal of the methyl groups”.
Regarding `CCc1cc(-c2ccc(NS(=O)(=O)c3ccccc3Cl)nc2OC)cc2cnc(NC3CCC(N(C)C)CC3)nc12` (stereo not shown) [Compound D], the “suppression of IRE1a-mediated XBP1 splicing in pancreas and salivary gland” value in series [5] was “potently suppressed”. In series [6], the metabolic fate entry is listed as “removal of the methyl groups”.
